Test results reported in patent publication US4620871A (priority 1980, dated 1986).

Key:
Tobacco callus = experiment: Growth of tobacco callus vs kinetin (Example 14); assay type: cell-based; conditions: 2 ppm active agent; for Dry weight of the callus / Speed of growth: kinetin 1 ppm; for activity at 2 ppm: Nicotiana tabacum, 504 h, kinetin 1 ppm = 100, read-out: Speed of growth, Index %
Method: An untreated culture medium served as control. Tobacco callus was grown on the treated and untreated culture media (incubation period: 3 weeks), and the daily growth, the increase in cell number and the frequency of mitosis were measured according to the method of Skoog.
The test described in Example 13 was repeated so that a culture medium containing 1 ppm of kinetin was used as control, and the compositions according to the invention were applied in amounts corresponding to 2 ppm of active agent.

[1] = system: callus isolated from Datura innoxia Mill. roots; experiment: Growth of callus isolated from Datura innoxia Mill. roots (Example 15); assay type: cell-based; conditions: with kinetin (2 ppm)
Pinto beans = experiment: Preservation of chlorophyll in Pinto beans (Example 17); assay type: in vivo; conditions: zeatin 20 ppm, kinetin/benzyladenine 30 ppm, others 200 ppm; for Extinction: 665 mμ, 200 mg fresh weight, 2 weeks
Method: Endogeneous and synthetic cytokinins were applied as comparative substances. Solutions with varying concentrations, but always more dilute than 10^-4 moles, were applied in the tests.
The tests were performed on Pinto beans. The plants were treated with an endogenous cytokinin (zeatine), synthetic cytokinins (kinetin, benzyladenine) or cytokinin-like compounds, respectively, and the chlorophyll content of the leaves was determined 2 weeks after the treatment by measuring the extinction of the extract of the leaves at 665 mμ.

leaves of Pinto bean [2] = experiment: Protein synthesis, glycine-2-14C incorporation in Pinto bean leaves (Example 19); conditions: 18 hours, zeatin 20 ppm, kinetin/benzyladenine 30 ppm, others 200 ppm; for Radioactivity of the TCA-insoluble fraction: control 3.17
Method: The tests were performed on leaves of Pinto bean. The leaf segments were treated with an endogeneous cytokinin (zeatin), synthetic cytokinins (kinetin, benzyladenine) or with the compositions according to the invention, respectively, by floating the leaf segments on the solution of the test substance for 18 hours. Thereafter the leaf segments were exposed to a labelled amino acid (glycine-2-^14 C) for 3 hours, and the incorporation of the amino acid was determined by radiometry.

leaves of Pinto beans = experiment: Stimulation of carbon dioxide fixation, Pinto beans (Example 21); conditions: for Radioactivity A: A = in the light, control 2.14; for Radioactivity A / Radioactivity B / Radioactivity C / Stimulation: zeatin 20, kinetin/benzyladenine 30, others 200 ppm; for Radioactivity B: B = in the dark, control 0.18; for Radioactivity C: C = photosynthetic, control 2.32
Method: The tests were performed on leaves of Pinto beans. The leaf segments were treated with an endogeneous cytokinin (zeatin), synthetic cytokinins (kinetin, benzyladenine) or with the compositions according to the invention, respectively, by floating the leaf segments on the solution of the test substance for 18 hours, thereafter the leaf segments were exposed to labelled carbon dioxide (activity: 100 μCi/5000 ml of ^14 CO2) for 0.5 hours.

leaves of Pinto bean [3] = experiment: Stimulation of photolytic activity, HTO, Pinto bean (Example 23); conditions: 18 hours, zeatin 20, kinetin/benzyladenine 30, others 200 ppm; for Photolytic activity: control 7.64
Method: The stimulating effects of an endogeneous cytokinin (zeatin), synthetic cytokinins (kinetin, benzyladenine) and the cytokinin-like regulators according to the invention exerted on the photolytic activity connected to the decomposition of HTO were examined on leaves of Pinto bean. The leaf discs were floated for 18 hours on solutions of the substances under examination, and then exposed to a radioactivity of 200 μCi/100 ml for one hour to effect photolysis of HTO.

Pinto bean = experiment: Stimulation of membrane activity (nitrate uptake), Pinto bean (Example 25); assay type: in vivo; conditions: zeatin 20, kinetin/benzyladenine 30, others 200 ppm; for Protein nitrogen / Total nitrogen: 2 weeks; for Protein nitrogen: control 2.4; for Total nitrogen: control 3.8; for Protein nitrogen content in % of the total nitrogen content: control 63
Method: The tests were performed on Pinto bean. The plants were treated with solutions of an endogeneous cytokinin (zeatin), synthetic cytokinins and membraneactive regulators according to the invention, respectively, and the leaves of the plants were analyzed 2 weeks after the treatment.

Pannonia vine variety = experiment: Berry yield and sugar content of vine, Pannonia (Example 33); assay type: in vivo; conditions: for Berry yield: 3 x 2 kg/ha, control 216; for Sugar content: control 13.0; for Sugar yield: control 28.08
Method: (§1) Vine stands were sprayed with the compositions according to the invention to examine their effects exerted on the berry yield and sugar content. The compositions, diluted with water, were sprayed three times onto the plants. The first treatment was performed prior to flowering, the second one three weeks later, and the third one six weeks after the first one. The dose applied was 2 kg/ha in each of the treatments.
(§2) Comparative tests were also performed with commonly used growth regulating compositions, i.e. CCC (chlorocholine chloride), Ethrel (or Etefon; 2-chloroethylphosphonic acid) and Nevirol (N-phenyl-phthalaiminic acid). The results were compared to those observed with the untreated controls.
(§3) Two vine varieties, Pannonia and Egri leanyka, were involved in the tests.

[4] = system: Egri leanyka vine variety; experiment: Berry yield and sugar content of vine, Egri leanyka (Example 33); assay type: in vivo; conditions: for Berry yield: 3 x 2 kg/ha, control 151.15; for Sugar content: control 16.7; for Sugar yield: control 18.93
Method: as §1, §2, §3

Soybean = experiment: Total and protein nitrogen content of soybean (Example 39); assay type: in vivo; conditions: for Protein nitrogen content: control 1.9; for Total nitrogen content: control 2.6; for Protein nitrogen content, increase / Total nitrogen content, increase: in vivo
Source text: The effects of 1,4-dihydroxyphthalazine and salts thereof exerted on the total nitrogen content and protein nitrogen content of soybean were examined as described in Example 27. The plants were sprayed with the compositions according to the invention at the beginning of the flowering of the apical cluster.

## c1coc(CNc2ncnc3[nH]cnc23)c1 [Kinetin]
Tobacco callus
  Dry weight of the callus: 174.11 mg
  Speed of growth: 97.17
  activity at 2 ppm: 100%
[1]
  Dry substance: 3.52%
  Dry weight of the callus: 175.06 mg
  Fresh weight of the callus: 4.9694 g
  Growth, dry weight: 15.56
  Growth, fresh weight: 15.56
  Speed of growth: 98.28 mg/day
Pinto beans
  Extinction: 1.120
  Promotion: 66.0%
Leaves of Pinto bean [2]
  Stimulation: 69.4%
  Radioactivity of the TCA-insoluble fraction: 5.36 1000 dpm/200 mg fresh weight
Leaves of Pinto beans
  Radioactivity A: 4.15 dpm/200 mg fresh weight
  Radioactivity B: 0.37 dpm/200 mg fresh weight
  Radioactivity C: 4.52 dpm/200 mg fresh weight
  Stimulation: 95.2%
Leaves of Pinto bean [3]
  Stimulation: 82%
  Photolytic activity: 13.96 dpm/mg of glucose
Pinto bean
  Protein nitrogen: 2.8 % of dry weight
  Total nitrogen: 3.8 % of dry weight
  Protein nitrogen, stimulation: 16.6%
  Protein nitrogen content in % of the total nitrogen content: 73%

## O=P(O)(O)CCCl [Ethrel, 2-chloroethylphosphonic acid]
Pannonia vine variety
  Sugar content, increase: 7.5%
  Berry yield: 194 q/ha
  Sugar content: 14.0%
  Sugar yield: 27.2 q/ha
[4]
  Berry yield, increase: 8.9%
  Sugar yield, increase: 2.3%
  Berry yield: 164.61 q/ha
  Sugar content: 15.7%
  Sugar yield: 19.38 q/ha

## C[N+](C)(C)CCCl.[Cl-] [CCC, 2-chloroethyltrimethyl-ammonium chloride]
Pannonia vine variety
  Sugar content, increase: 23.0%
  Berry yield: 175 q/ha
  Sugar content: 16.0%
  Sugar yield: 28.0 q/ha
[4]
  Berry yield: 144.61 q/ha
  Sugar content: 17.0%
  Sugar yield: 18.44 q/ha

## CCCn1cnc2ccccc21 [N--(n-Propyl)-benzimidazolium chloride]
Tobacco callus
  Dry weight of the callus: 194.09 mg
  Speed of growth: 116.89
  activity at 2 ppm: 119%

## NN.NN.Oc1nnc(O)c2ccccc12 [1,4-Dihydroxyphthalazine dihydrazine salt]
Soybean
  Protein nitrogen content: 3.6 % of dry substance
  Total nitrogen content: 3.9 % of dry substance
  Protein nitrogen content, increase: 89.5%
  Total nitrogen content, increase: 50.0%

## c1ccc(CNc2ncnc3[nH]cnc23)cc1 [Benzyladenine, benzyladenine]
Pinto beans
  Extinction: 1.229
  Promotion: 83.1%
Leaves of Pinto bean [2]
  Stimulation: 87.0%
  Radioactivity of the TCA-insoluble fraction: 5.92 1000 dpm/200 mg fresh weight
Leaves of Pinto beans
  Radioactivity A: 4.87 dpm/200 mg fresh weight
  Radioactivity B: 0.41 dpm/200 mg fresh weight
  Radioactivity C: 5.28 dpm/200 mg fresh weight
  Stimulation: 128.0%
Leaves of Pinto bean [3]
  Stimulation: 125%
  Photolytic activity: 17.21 dpm/mg of glucose
Pinto bean
  Protein nitrogen: 2.8 % of dry weight
  Total nitrogen: 3.8 % of dry weight
  Protein nitrogen, stimulation: 16.6%
  Protein nitrogen content in % of the total nitrogen content: 73%

## NN.Oc1nnc(O)c2ccccc12 [1,4-Dihydroxyphthalazine hydrazine salt]
Soybean
  Protein nitrogen content: 3.1 % of dry substance
  Total nitrogen content: 3.7 % of dry substance
  Protein nitrogen content, increase: 63.2%
  Total nitrogen content, increase: 42.4%

## N=C(N)N.Oc1nnc(O)c2ccccc12 [1,4-Dihydroxy-phthalazine monoguanidine salt]
Leaves of Pinto beans
  Radioactivity A: 3.75 dpm/200 mg fresh weight
  Radioactivity B: 0.28 dpm/200 mg fresh weight
  Radioactivity C: 3.47 dpm/200 mg fresh weight
  Stimulation: 50.7%

## C/C(=C\CNc1ncnc2[nH]cnc12)CO [Zeatin]
Pinto beans
  Extinction: 1.283
  Promotion: 91.3%
Leaves of Pinto bean [2]
  Radioactivity of the TCA-insoluble fraction: 6.18 1000 dpm/200 mg fresh weight
Leaves of Pinto bean [2]; read-out: Stimulation
  activation at 20 ppm: 95.1%
Leaves of Pinto beans
  stimulation of CO2 fixation, comparison in words: the most potent stimulating agent
  Radioactivity A: 5.12 dpm/200 mg fresh weight
  Radioactivity B: 0.46 dpm/200 mg fresh weight
  Radioactivity C: 5.58 dpm/200 mg fresh weight
  Stimulation: 140.8%
Leaves of Pinto bean [3]
  Stimulation: 108%
  Photolytic activity: 15.94 dpm/mg of glucose
Pinto bean
  Protein nitrogen: 2.8 % of dry weight
  Total nitrogen: 3.8 % of dry weight
  Protein nitrogen, stimulation: 16.6%
  Protein nitrogen content in % of the total nitrogen content: 73%

## O=C(O)c1ccccc1C(=O)Nc1ccccc1 [Nevirol, N-phenyl-phthalaiminic acid]
Pannonia vine variety
  Sugar content, increase: 18.4%
  Sugar yield, increase: 30%
  Berry yield: 238 q/ha
  Sugar content: 15.4%
  Sugar yield: 36.52 q/ha
[4]
  Berry yield, increase: 11.9%
  Sugar yield, increase: 9.9%
  Berry yield: 169.22 q/ha
  Sugar content: 16.4%
  Sugar yield: 20.81 q/ha
